Here are results for ten compounds from ChEMBL document CHEMBL1133150, “N-formyl hydroxylamine containing dipeptides: generation of a new class of vasopeptidase inhibitors” (Bioorg Med Chem Lett, 2000).

The target in assay [1] is T1, Angiotensin-converting enzyme (Oryctolagus cuniculus, UniProt P12822).
T1 sequence (P12822 whole entry): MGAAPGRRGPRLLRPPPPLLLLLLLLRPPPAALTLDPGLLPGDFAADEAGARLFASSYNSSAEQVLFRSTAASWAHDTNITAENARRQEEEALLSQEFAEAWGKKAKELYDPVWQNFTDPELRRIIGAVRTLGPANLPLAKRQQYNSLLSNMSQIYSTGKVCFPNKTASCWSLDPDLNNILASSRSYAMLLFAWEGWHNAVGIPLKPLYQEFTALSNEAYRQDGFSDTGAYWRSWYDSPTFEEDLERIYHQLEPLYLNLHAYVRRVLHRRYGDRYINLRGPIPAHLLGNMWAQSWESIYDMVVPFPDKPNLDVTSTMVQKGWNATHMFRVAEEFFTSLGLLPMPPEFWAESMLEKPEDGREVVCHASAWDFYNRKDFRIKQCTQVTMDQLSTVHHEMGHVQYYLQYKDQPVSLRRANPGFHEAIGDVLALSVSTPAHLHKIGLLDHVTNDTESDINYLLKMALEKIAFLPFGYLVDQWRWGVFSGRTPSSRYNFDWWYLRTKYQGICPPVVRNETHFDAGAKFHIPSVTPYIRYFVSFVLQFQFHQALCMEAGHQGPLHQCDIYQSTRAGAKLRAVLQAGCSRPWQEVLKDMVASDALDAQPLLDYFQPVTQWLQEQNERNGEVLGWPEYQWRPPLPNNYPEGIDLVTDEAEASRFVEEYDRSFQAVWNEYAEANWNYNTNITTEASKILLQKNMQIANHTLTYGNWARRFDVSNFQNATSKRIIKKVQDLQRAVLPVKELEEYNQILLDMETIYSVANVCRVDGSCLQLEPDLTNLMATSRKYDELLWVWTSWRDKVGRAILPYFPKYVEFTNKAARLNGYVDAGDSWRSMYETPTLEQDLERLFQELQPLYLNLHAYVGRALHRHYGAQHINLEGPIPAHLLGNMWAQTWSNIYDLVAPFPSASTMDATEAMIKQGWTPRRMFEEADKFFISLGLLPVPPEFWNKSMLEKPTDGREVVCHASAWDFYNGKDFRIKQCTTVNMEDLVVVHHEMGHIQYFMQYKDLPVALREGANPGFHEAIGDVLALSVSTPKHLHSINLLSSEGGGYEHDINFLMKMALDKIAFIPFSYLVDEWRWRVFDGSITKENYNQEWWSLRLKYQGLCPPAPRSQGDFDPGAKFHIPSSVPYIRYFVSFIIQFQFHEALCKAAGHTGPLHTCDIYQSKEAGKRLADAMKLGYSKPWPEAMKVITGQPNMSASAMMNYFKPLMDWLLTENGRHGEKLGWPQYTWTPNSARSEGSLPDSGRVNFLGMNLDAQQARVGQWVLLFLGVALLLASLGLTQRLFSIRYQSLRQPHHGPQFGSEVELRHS
The assay can be described thus: Inhibition of Angiotensin I converting enzyme.

The target of a further assay is T2, Neprilysin (Rattus norvegicus, UniProt P07861).
T2 sequence (P07861 whole entry): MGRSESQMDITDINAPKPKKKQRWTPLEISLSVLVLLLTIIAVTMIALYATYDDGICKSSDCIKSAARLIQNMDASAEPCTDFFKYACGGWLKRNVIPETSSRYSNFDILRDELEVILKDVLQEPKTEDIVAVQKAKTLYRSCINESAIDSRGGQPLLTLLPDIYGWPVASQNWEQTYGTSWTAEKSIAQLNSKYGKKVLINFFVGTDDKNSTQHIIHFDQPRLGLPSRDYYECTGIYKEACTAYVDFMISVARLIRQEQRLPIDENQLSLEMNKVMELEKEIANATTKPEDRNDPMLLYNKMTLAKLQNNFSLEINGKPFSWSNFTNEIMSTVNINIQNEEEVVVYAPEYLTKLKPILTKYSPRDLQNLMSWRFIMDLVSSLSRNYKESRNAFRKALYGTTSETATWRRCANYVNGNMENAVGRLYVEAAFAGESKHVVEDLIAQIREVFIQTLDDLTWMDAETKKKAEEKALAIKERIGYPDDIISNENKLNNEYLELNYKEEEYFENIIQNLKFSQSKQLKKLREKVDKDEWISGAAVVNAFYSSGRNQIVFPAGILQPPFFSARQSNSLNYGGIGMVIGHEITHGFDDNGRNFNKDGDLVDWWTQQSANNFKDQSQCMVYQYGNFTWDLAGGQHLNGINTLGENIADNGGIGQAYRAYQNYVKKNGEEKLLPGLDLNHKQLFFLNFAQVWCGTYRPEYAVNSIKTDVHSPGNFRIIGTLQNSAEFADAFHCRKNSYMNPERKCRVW
Kind of assay: Inhibition of Neutral endopeptidase.

`O=C(N[C@H]1CCS[C@H]2CCC[C@@H](C(=O)O)N2C1=O)[C@@H](S)Cc1ccccc1` [OMAPATRILAT]: the results for the IC50 (in assay [1]; against Neprilysin) were 6 nM and 9 nM, respectively.
In the same order, the values of `O=CN(O)C[C@@H](Cc1ccccc1)C(=O)N[C@H]1CCc2ccccc2N(CC(=O)O)C1=O` are 5.3 nM and 1.3 nM.
On the same counts, the results for `CC(C)C[C@H](NC(=O)C(Cc1ccccc1)CN(O)C(N)=O)C(=O)N[C@@H](Cc1ccccc1)C(=O)O` (stereo not given in full) are 529000 nM and 705000 nM.
On the same counts, the results for `CC(C)C[C@H](NC(=O)[C@H](Cc1ccccc1)N(O)C=O)C(=O)N[C@@H](Cc1ccccc1)C(=O)O` are 228000 nM and 93000 nM.
For the compound `CC(=O)N(O)CC(Cc1ccccc1)C(=O)N[C@@H](CC(C)C)C(=O)N[C@@H](Cc1ccccc1)C(=O)O` (stereo not given in full), the IC50 in assay [1] was found to be 461000 nM; against Neprilysin it was 214000 nM.
`CC(C)[C@H](NCP(=O)(O)O)C(=O)N[C@@H](Cc1ccc(-c2ccccc2)cc1)C(=O)O`: the IC50 in assay [1] turned out to be 25 nM; against Neprilysin, 3 nM.
Consider `CC(C)C[C@H](NC(=O)C(Cc1ccccc1)CN(O)C=O)C(=O)N[C@@H](Cc1ccccc1)C(=O)O` (stereo not given in full), for which the figures for the IC50 (in assay [1]; against Neprilysin) were 106 nM and 1270 nM, respectively.
For `CC1(C)CCC[C@H](NC(=O)[C@H](Cc2ccccc2)CN(O)C=O)C(=O)N1CC(=O)O`, the IC50 is 5.4 nM in assay [1] and 18 nM against Neprilysin.
For `O=CN(O)C[C@@H](Cc1ccccc1)C(=O)N[C@H]1Cc2ccccc2[C@H]2CCC[C@@H](C(=O)O)N2C1=O`, the values for the IC50 (in assay [1]; at Neprilysin) were 3.4 nM and 1.8 nM, respectively.
Turning to `CS(=O)(=O)N[C@@H](CCCCN)C(=O)NC[C@H](CC1(C(=O)N[C@@H](Cc2ccc(O)cc2)C(=O)O)CCCC1)C(=O)O` [SAMPATRILAT], the IC50 in assay [1] was determined as 7 nM; against Neprilysin it was 20 nM.

As a reminder, the IC50 is the concentration at which inhibition is half-maximal. Low values mean greater potency in that assay, high ones weaker potency in that assay.
